Results as given in patent US20250360145A1, “CSF-1R INHIBITORS AND USES THEREOF” (Myrobalan Therapeutics, Inc., priority 2022, published 2025).
Where two headings read alike, the source gives them in different places.

What was measured:
[1] = target: CSF-1R (Homo sapiens (Human), UniProt P07333); assay: Biochemical HTRF kinase assay, CSF-1R; details: Table 2; recombinant human CSF-1R;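 further: enzyme incubated with inhibitor plus a substrate and ATP mix for one hour at room temperature before HTRF detection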
[2] = system: Ba/F3_CSF-1R (stably expressing human CSF-1R kinase); assay: Cell proliferation assay, Ba/F3_CSF-1R; type: cell-based
[3] = system: EOC2 cell; assay: Cell proliferation assay, EOC2; type: cell-based, mouse
[4] = BaF3, 72 h, Ba/F3_CSF-1R cells, 72 hours treatment, read-out: CSF-1R BaF3 EC50
[5] = Mus musculus, 72 h, EOC2 cells, 72 hours treatment, read-out: ECO2 EC50
[6] = BaF3, 72 h, read-out: CSF-1R BaF3 EC50 (nM)
[7] = EOC2 cells, 72 hours treatment, read-out: ECO2 EC50

CSF-1R, sequence (P07333 20-972): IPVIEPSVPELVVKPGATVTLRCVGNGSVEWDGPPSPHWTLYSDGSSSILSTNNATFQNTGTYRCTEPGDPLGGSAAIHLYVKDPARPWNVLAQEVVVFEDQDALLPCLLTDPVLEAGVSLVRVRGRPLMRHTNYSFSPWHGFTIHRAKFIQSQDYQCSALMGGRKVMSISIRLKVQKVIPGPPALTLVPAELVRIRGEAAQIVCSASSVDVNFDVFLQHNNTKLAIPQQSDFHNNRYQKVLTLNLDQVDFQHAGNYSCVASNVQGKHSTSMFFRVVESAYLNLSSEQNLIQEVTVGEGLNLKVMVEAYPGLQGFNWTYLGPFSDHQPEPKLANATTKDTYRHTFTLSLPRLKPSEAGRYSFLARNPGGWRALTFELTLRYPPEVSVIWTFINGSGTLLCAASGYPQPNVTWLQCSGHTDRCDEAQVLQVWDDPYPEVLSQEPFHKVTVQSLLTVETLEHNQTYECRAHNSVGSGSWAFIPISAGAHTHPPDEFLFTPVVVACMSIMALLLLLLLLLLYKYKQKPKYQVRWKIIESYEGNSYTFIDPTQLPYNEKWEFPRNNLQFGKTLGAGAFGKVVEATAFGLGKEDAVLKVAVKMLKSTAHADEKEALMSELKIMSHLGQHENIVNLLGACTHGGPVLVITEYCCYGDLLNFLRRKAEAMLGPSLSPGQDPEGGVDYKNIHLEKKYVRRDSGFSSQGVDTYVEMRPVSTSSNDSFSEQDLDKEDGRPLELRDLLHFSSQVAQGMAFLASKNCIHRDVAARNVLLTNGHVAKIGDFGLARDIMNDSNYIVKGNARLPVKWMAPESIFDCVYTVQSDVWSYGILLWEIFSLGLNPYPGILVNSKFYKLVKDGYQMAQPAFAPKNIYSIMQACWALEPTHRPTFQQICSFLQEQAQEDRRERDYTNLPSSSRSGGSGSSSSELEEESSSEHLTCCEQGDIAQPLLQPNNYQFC

Structure (SMILES)	IC50 [1]	EC50 [2, 4]	EC50 [3, 5]	EC50 [2, 6]	EC50 ([3]; Mus musculus, 72 h, read-out: ECO2 EC50 (nM))	EC50 [3, 7]	EC50 ([2]; Ba/F3_CSF-1R cells, 72 hours treatment, read-out: CSF-1R BaF3 EC50)
COc1ccc(COc2ncc(Cc3ccnc4cc(C(=O)N(C)C)cnc34)cc2OC)nc1 [Example 133]	58.8 nM	443 nM	312 nM	–	–	–	–
COc1ccc(COc2ncc(Cc3ccnc4cc(N5CCNCC5)cnc34)cc2OC)nc1 [Example 135]	22.4 nM	25.8 nM	66.5 nM	–	–	–	–
COc1ccc(COc2ncc(Cc3ccnc4cc(-c5cnc(C)s5)cnc34)cc2OC)nc1 [Example 138, 5-(8-((5-methoxy-6-((5-methoxypyridin-2-yl)methoxy)pyridin-3-yl)methyl)-1,5-naphthyridin-3-yl)-2-methylthiazole]	12.6 nM	–	2.2 nM	1.8 nM	–	–	–
COc1ccc(COc2ncc(Cc3ccnc4cc(-c5ccccn5)cnc34)cc2OC)nc1 [Example 139]	11.3 nM	8.8 nM	7.9 nM	–	–	–	–
COc1ccc(COc2ncc(Cc3ccnc4cc(-c5cccnc5)cnc34)cc2OC)nc1 [Example 140, 8-((5-methoxy-6-((5-methoxypyridin-2-yl)methoxy)pyridin-3-yl)methyl)-3-(pyridin-3-yl)-1,5-naphthyridine]	9.4 nM	–	10.6 nM	9.8 nM	–	–	–
COc1ccc(COc2ncc(Cc3ccnc4cc(N5CC(OC)C5)cnc34)cc2OC)nc1 [Example 141]	7.1 nM	5.8 nM	3.7 nM	–	–	–	–
COc1ccc(COc2ncc(Cc3ccnc4cc(-n5cc(C)cn5)cnc34)cc2OC)nc1 [Example 142]	13.8 nM	7.3 nM	4.8 nM	–	–	–	–
COc1ccc(COc2ncc(Cc3ccnc4cc(-n5ccnc5C)cnc34)cc2OC)nc1 [Example 143]	15.7 nM	45.9 nM	57.5 nM	–	–	–	–
COc1ccc(COc2ncc(Cc3ccnc4cc(N5CC(F)(F)C5)cnc34)cc2OC)nc1 [Example 144]	11.3 nM	10.7 nM	25.3 nM	–	–	–	–
COc1cnc2c(Cc3cnc(OCc4cc5cnccn5n4)c(OC)c3)ccnc2c1 [Example 145]	39.1 nM	229 nM	178 nM	–	–	–	–
COc1ccc(COc2ncc(Cc3c(F)cnc4cc(OC)cnc34)cc2OC)nc1 [Example 146]	208 nM	> 1000 nM	> 1000 nM	–	–	–	–
COc1cnc2c(Cc3cnc(OCc4ccn5nccc5c4)c(OC)c3)ccnc2c1 [Example 147]	7.9 nM	60.9 nM	78.8 nM	–	–	–	–
COc1cnc2c(Cc3cnc(OCc4ccc5ccnn5c4)c(OC)c3)ccnc2c1 [Example 148]	6.3 nM	37.3 nM	49.8 nM	–	–	–	–
COc1cnc2c(Cc3cnc(OCc4cc5cccnc5[nH]4)c(OC)c3)ccnc2c1 [Example 149]	3.9 nM	61.6 nM	91.2 nM	–	–	–	–
COc1cnc2c(Cc3cc(OC)c4nc(N5CCC(OC)CC5)ncc4c3)ccnc2c1 [Example 150]	947 nM	> 1000 nM	> 1000 nM	–	–	–	–
COc1ccc(COc2ccc(Cc3ccnc4cc(OC)cnc34)cn2)nc1 [Example 151, 3-methoxy-8-((6-((5-methoxypyridin-2-yl)methoxy)pyridin-3-yl)methyl)-1,5-naphthyridine]	22.6 nM	–	–	412 nM	280 nM	–	–
COc1cnc2c(Cc3ccc4nc(N5CCC(OC)CC5)ncc4c3)ccnc2c1 [Example 152]	> 1000 nM	> 1000 nM	> 1000 nM	–	–	–	–
COc1cnc2c(Cc3ccc4nc([C@H]5CC[C@@H](OC)CC5)cnc4c3)ccnc2c1 [Example 154]	28.6 nM	329 nM	–	–	–	199 nM	–
COc1cnc2c(Cc3ccc4nc([C@H]5CC[C@@H](OC)CC5)cnc4c3)ccnc2c1 [Example 155]	258 nM	–	–	–	–	> 1000 nM	607 nM
COc1cnc2c(Cc3ccc4nc(C5CCOCC5)cn4c3)ccnc2c1 [Example 156]	> 1000 nM	> 1000 nM	> 1000 nM	–	–	–	–
COc1cnc2c(Cc3ccc4nc(C5CCOCC5)cnc4c3)ccnc2c1 [Example 157]	543 nM	> 1000 nM	> 1000 nM	–	–	–	–
COc1cnc2c(Cc3ccn4nc(C5CCOCC5)cc4c3)ccnc2c1 [Example 158, 3-methoxy-8-((2-(tetrahydro-2H-pyran-4-yl)pyrazolo[1,5-a]pyridin-5-yl)methyl)-1,5-naphthyridine]	> 1000 nM	> 1000 nM	> 1000 nM	–	–	–	–
